We go through ten molecules from ChEMBL document CHEMBL1137251, “Synthesis of rigid trichostatin A analogs as HDAC inhibitors” (Bioorg Med Chem Lett, 2006).

Activity calls are given as the source filed them. The rule behind the calls is not given here.

The nature of assay [1]: Antiproliferative activity against H661 cells. Type of assay: functional, cell-based. The conditions noted are these: Homo sapiens, NCI-H661.
Assay [2] addresses Histone H4 (Homo sapiens) (UniProt P62805). The assay is described as follows: Acetylation of histone H4 at 2.5 uM by Western blot analysis.
The target is the same in assay [3]. In words: Acetylation of histone H4 at 0.3 uM by Western blot analysis. (In western blotting, separated proteins are transferred to a membrane and probed.)
The nature of assay [4]: Antiproliferative activity against H1299 cells. It counts as functional, cell-based. The following applies: Homo sapiens, NCI-H1299.
The subject of assay [5] is HCT-116. The assay is described as follows: Antiproliferative activity against HCT116 cells. It counts as functional, cell-based. The following applies: Homo sapiens.
Assay [6] addresses Histone H4 (Homo sapiens) (UniProt P62805). The assay is described as follows: Acetylation of histone H4 at 5 uM by Western blot analysis.

One may read the IC50 as the midpoint of a concentration-inhibition curve. Read a low IC50 as inhibition by little substance. Molecule `CC(/C=C/C(=O)Nc1ccccc1N)=C\C1(C)CCc2ccccc2C1=O` (centres undefined) returned a concentration for half-maximal inhibition (IC50) in assay [1] of 5000 nM.
Molecule `CC(/C=C/C(=O)NO)=C\C1(C)Cc2ccccc2C1=O` (centres undefined) registered an IC50 in assay [1] of 1650 nM.
Still for that read-out and setting: next, `C=C(/C=C/C(=O)Nc1ccccc1N)CC1(C)Cc2ccccc2C1=O` (centres undefined): over 10000 nM.
Consider `CC(/C=C/C(=O)NO)=C\C1(C)Cc2cc(F)ccc2C1=O` (centres undefined), for which the outcome in assay [2] was Active. In assay [1], half-maximal inhibition (IC50) was put at 1500 nM.
As for `CC(/C=C/C(=O)Nc1ccccc1N)=C\C1(C)Cc2ccccc2C1=O` (centres undefined), it took 3000 nM to reach half-maximal inhibition in assay [1] (IC50).
On the same count and under the same terms, as for `CC(/C=C/C(=O)Nc1ccccc1N)=C\C1(C)Cc2cc(N(C)C)ccc2C1=O` (centres undefined), the figure is 2500 nM.
Consider `CC(/C=C/C(=O)NO)=C\C1(C)Cc2cc(N(C)C)ccc2C1=O` (centres undefined), for which, in assay [3], the result was Active.
As to `CC(/C=C/C(=O)NO)=C\[C@@H](C)C(=O)c1ccc(N(C)C)cc1` [TRICHOSTATIN], the results for the IC50 in assay [1], in assay [4] and in assay [5] were under 300 nM, 100 nM and 1.3 nM, respectively.
Turning to `CC(/C=C/C(=O)NO)=C\C1(C)CCc2ccccc2C1=O` (centres undefined), the result in assay [6] was Active. Besides, in assay [1], half-maximal inhibition (IC50) was put at 3000 nM.
As for `CC(/C=C/C(=O)Nc1ccccc1N)=C\C1(C)Cc2cc(F)ccc2C1=O` (centres undefined), the IC50 in assay [1] was found to be 7000 nM.
